In patent US12268747B2, “Polypeptides having anti-senescent effects and uses thereof” (OneSkin, Inc., priority 2019, dated 2025):

Tests used:
MeWo cells [1] = assay: Melanin content of MeWo cells, 14 days or interrupted on 7th day; assay type: cell-based, human
Procedure: The skin frequently may experience rebound hyperpigmentation, where pigmentation is reestablished in the skin after the discontinuation of the lightening treatment(s). To test whether the depigmentation effect of Peptide 14 remained after the Peptide 14 treatment was discontinued, MeWo cells were cultured in DMEM supplemented with 10% v/v FBS and 1% v/v of penicillin/streptomycin solution (1,000 U·mL^−1) at 5% CO2, 37° C. and 95% humidity. For two weeks prior to treatment with one of the experimental conditions (pre-treatment), the MeWo cells were cultured with isobutyl methylxanthine (IBMX) to stimulate melanin synthesis. After the MeWo cells were seeded in 6-well plates at 1,000,000 cells per well for 6 hours, the cells were incubated with one of the experimental conditions for 14 days and analyzed for intracellular and supernatant melanin content.
The experimental conditions included a positive control group, a negative control group, a Peptide 14 (IBMX) 14 days group, a retinoic acid (IBMX) 14 days group, a Peptide 14 (IBMX) interrupted on 7th day group, and a retinoic acid (IBMX) interrupted on 7th day group. The negative control group comprised MeWo cells which were stimulated with 25 μM IBMX for 2 weeks in the pre-treatment period and then were untreated for 14 days, receiving the vehicle only, after being plated for the experiment. The positive control group comprised MeWo cells that were incubated with 25 μM IBMX during the entire experiment, for 2 weeks in the pre-treatment period and for 14 days in the treatment period. Some of the groups were treated with both IBMX 25 μM for 7 or 14 days, as well as 3.12 μM Peptide 14, or both IBMX 25 μM (for 7 or 14 days), as well as retinoic acid 2 μM. The Peptide 14 (IBMX) 14 day group comprised MeWo cells that were incubated with 25 μM IBMX 2 weeks in the pre-treatment period and then treated for 14 days with 25 μM IBMX and 3.12 μM Peptide 14. The retinoic acid (IBMX) 14 day group comprised MeWo cells that were incubated with 25 μM IBMX 2 weeks in the pre-treatment period and then treated for 14 days with 25 μM IBMX and 2 μM retinoic acid. […]
(§1) After treatment, the melanin content in the cell pellet and the cell culture supernatant was assessed by the absorbance of the samples at 492 nm. […] Data are presented as relative melanin content, absorbance of the samples at a specified wavelength (492 nm) normalized to the normalized to the number of cells in the sample absorbance of the negative control samples also as the same wavelength. […] The data were analyzed using ANOVA and Bonferroni post-hoc test when a statistical significance was detected. […]

MeWo cells [2] = assay: Melanin content of MeWo cells, 7 days treatment; assay type: cell-based, human; settings: 7 days after 14 day IBMX pre-treatment; Peptide 14 3.12 μM or retinoic acid 2 μM with 25 μM IBMX; positive control 25 μM IBMX
Procedure: To test whether Peptide 14 promotes depigmentation of melanocytes, MeWo cells were cultured in DMEM supplemented with 10% v/v FBS and 1% v/v of penicillin/streptomycin solution (1,000 U·mL^−1) at 5% CO2, 37° C. and 95% humidity. For two weeks prior to treatment with one of the experimental conditions (pre-treatment), the MeWo cells were cultured with isobutyl methylxanthine (IBMX) to stimulate melanin synthesis. After the MeWo cells were seeded in 6-well plates at 1,000,000 cells per well for 6 hours, the cells were incubated with one of the experimental conditions for 7 days and analyzed for intracellular and supernatant melanin content.
The experimental conditions included a positive control group, a negative control group, a Peptide 14 (IBMX) 7d group, and a retinoic acid (IBMX) 7d group. […]
as §1, with “the” for “the normalized to the number of cells in the sample”

fibroblasts, UVB exposed = assay: SA-B-galactosidase staining in UVB-exposed fibroblasts (Example 8); assay type: cell-based, human; settings: 48 hours after UVB 2 x 0.05 J/cm^2
Procedure: (§2) In order to shed light into the mechanism of action of Peptide 14 and similar Peptide 13, Akt S473 phosphorylation (FIG. 8, panel A), senescence associated β-galactosidase staining (FIG. 8, panel B), as well as mRNA expression (FIG. 8, panel C) were investigated. For Akt S473 phosphorylation analysis using western blotting, human primary fibroblasts and keratinocytes were used. These cells were used to build human skin equivalents, which were kept in a 5% CO2, 37° C. and 95% humidity atmosphere air liquid interface. Then, skin equivalents were treated with 1 μM of either Peptide 14 or Peptide 13 for 5 days, and protein analysis was performed on the skin equivalents. Protein was isolated and quantified. Equal amounts of protein were loaded in polyacrylamide gels and transferred into a nitrocellulose membrane. […] Relative pAkt S473/GAPDH signal was compared between treated and non-treated samples. For senescence associated B-galactosidase staining experiments, fibroblasts were used. […] Total RNA was isolated, samples were reverse transcribed, and mRNA expression of GAPDH, sirtuin 6 (SIRT6), BLM, and exonuclease 1 (EXO1) genes were determined using qPCR. […] CT values were analyzed using the 2^−ΔΔCt method. […] Data was analyzed using a T-test. Statistical significance was determined as p values equal or lower than 0.05 (FIG. 8).

[3] = test system: human skin equivalents from elder donors; assay: Human skin equivalents: histology score and morphology (Example 18); assay type: cell-based; settings: 0.01% w/v (or 1 μM), 5 days; vehicle control 21.00
Procedure: To test the effect of Peptide 13 and Peptide 14 treatment on human skin models and the skin morphology, human primary fibroblasts and keratinocytes isolated from healthy elder donors were used to build human skin equivalents. The skin equivalents were treated with 0.01% w/v (or 1 μM) of Peptide 13 or Peptide 14 for 5 days. The negative controls were treated with formulation only. After the 5-day culture, the skin equivalents were analyzed for epidermal thickness, which was quantified according to total epidermal area. Quality assessment based several parameters was performed by blind analysts. […] A minimal score of 19 was required for batch use. This score was validated internally and shown to decrease with age/senescence of the skin equivalents or cultured cells. Three independent experiments were performed with three technical replicates. Data were analyzed using a t-test. Statistical significance was determined as p-values equal or lower than 0.05. The statistically significant p-values are noted by * for p<0.05; ** for p<0.01; *** for p<0.001; **** for p<0.0001 between the groups.

pAkt S473 = assay: Akt S473 phosphorylation western blot in human skin equivalents; assay type: cell-based; settings: 1 μM, 5 days
Procedure: as §2

[4] = test system: p16, BLIMP1, ZYG11B, IL-8, Ki-67, ZIC1, MMP1, HAS2 mRNA in 3D skin equivalents; assay: 3D skin equivalents: relative mRNA expression of senescence, aging and health markers; assay type: cell-based, human
Procedure: 3D skin equivalent sections of samples built with cells from elder donors ([…]) were treated with 1 μM Peptide 14 or Peptide 13, or 20 μM Retinoic Acid (RA) and assessed for the effect of the various treatments of various markers of senescence, aging, and health.
Data are presented as 2-ddCt normalized to GAPDH and untreated control. *p<0.05. Peptide 13 and Peptide 14-treated samples generally had similar relative mRNA expression levels for p16, BLIMP1, ZYG11B, IL-8, and Ki-67 in the epidermal layer, and for p16, MMP1, HAS2, IL-8, and Ki-67 in the dermal layer. Peptide 13 and Peptide 14-treated samples generally had lower relative mRNA expression levels than RA-treated samples for p16, BLIMP1, ZYG11B, IL-8, in the epidermal layer and for p16, MMP1, IL-8, and Ki-67 in the dermal layer. Peptide 13 and Peptide 14-treated samples generally had higher relative mRNA expression levels than RA-treated samples for Ki-67 in the epidermal layer and for HAS2 for the dermal layer. Peptide 13 and Peptide 14-treated samples had similar relative mRNA expression levels as RA-treated samples for ZIC1 and Ki-67 for dermal layer.

[5] = test system: Primary fibroblasts isolated from 3 healthy chronologically aged patients; assay: SA-B-galactosidase senescence in fibroblasts of aged donors, concentration series; assay type: cell-based, human; settings: 1.56-50 μM (Peptide 16: 1.56-25 μM), 48 hours; in at least one of the tested concentrations
Procedure: Primary fibroblasts isolated from 3 healthy chronologically aged patients were used. Cells were cultured in DMEM (Dulbecco's Modified Eagle's Medium) supplemented with 10% v.v. fetal bovine serum (FBS), and 1% v.v. of penicillin/streptomycin solution (1,000 U·mL−1). Cells were kept in a 5% CO2, 37° C. and 95% humidity atmosphere. After expansion, these cells were seeded in 96-well plates (4,000 cells per well) and, 6 hours after plating the cells were treated with one of 4 senotherapeutic polypeptides (Peptide 14, Peptide 13, Peptide 15, and Peptide 16) and incubated for 48 hours. Each polypeptide was tested at 6 different concentrations: 50 μM, 25 μM, 12.5 μM, 6.25 μM, 3.12 μM, and 1.56 μM, except for Peptide 16, which was tested at 5 different concentrations: 25 μM, 12.5 μM, 6.25 μM, 3.12 μM, and 1.56 μM. A negative control comprised untreated cells, which received vehicle only. After incubation, relative cellular senescence (assessed by the activity of senescence associated B-galactosidase staining relative to untreated control) was analyzed (FIG. 2, panels A-D), in which the Y axis indicates the relative senescence levels normalized to untreated control. Each column corresponds to a different concentration of a polypeptide. Three independent experiments (biological replicates) including three technical replicates were performed. Data was analyzed using Analysis of Variance (ANOVA) and a Bonferroni post-hoc tests. Statistical significance was determined as p values equal or lower than 0.05.

[6] = 7 day treatment, then 7 days 25 μM IBMX only
[7] = 1 μM peptide vs 20 μM Retinoic Acid

Molecule | relative melanin content, cell culture supernatant (MeWo cells [1]; [6]) | relative melanin content, cell pellet (MeWo cells [1]; [6]) | relative melanin content, cell pellet (MeWo cells [1]; 14 day treatment, Peptide 14 3.12 μM or retinoic acid 2 μM with 25 μM IBMX, positive control 25 μM IBMX, normalized to cell number and negative control) | relative melanin content, cell culture supernatant (MeWo cells [1]; 14 day treatment, positive control 25 μM IBMX) | relative melanin content, cell pellet (MeWo cells [2]) | SA-B-galactosidase staining in UVB-exposed samples (fibroblasts, UVB exposed) | mean of histology scores (maximum 28) [3] | pAkt S473 in dermal samples (pAkt S473) | pAkt S473 in epidermal samples (pAkt S473) | relative mRNA, Peptide 13 vs Peptide 14: p16, BLIMP1, ZYG11B, IL-8, Ki-67 (epidermal); p16, MMP1, HAS2, IL-8, Ki-67 (dermal) ([4]; 1 μM each) | relative mRNA vs RA-treated samples: Ki-67 (epidermal), HAS2 (dermal) [4, 7] | relative mRNA vs RA-treated samples: ZIC1 and Ki-67 (dermal) [4, 7] | relative mRNA vs RA-treated samples: p16, BLIMP1, ZYG11B, IL-8 (epidermal); p16, MMP1, IL-8, Ki-67 (dermal) [4, 7] | relative cellular senescence (SA-B-galactosidase staining) vs untreated control [5]
CC1=C(/C=C/C(C)=C/C=C/C(C)=C/C(=O)O)C(C)(C)CCC1 [retinoic acid] | about 100% | about 90% | about 130% | about 50% | about 125 % of the negative control group | – | – | – | – | – | – | – | – | –
ATAKAWLKGI [Peptide 13] | – | – | – | – | – | decreased staining | 23.44 | decreased | dermal samples only | similar | higher | similar | lower | senotherapeutic effects
